This is an account of results in US20140155389A1, “BICYCLIC INHIBITORS OF ALK” (ABBVIE INC., priority 2011, published 2014).

The target of this experiment is T1, ALK (Homo sapiens, UniProt Q9UM73).
T1 construct: purchased Millipore
The experiment is described as follows: ALK kinase assay (HTRF). The settings on record: apparent Ki from IC50 by Cheng-Prusoff; ALK (Millipore) 3 nM or 4 nM, 50 μM ATP, 1 h at room temperature; read-out: HTRF_ALK Human - Ki. It counts as biochemical. A general note: TR-FRET usually uses a lanthanide donor and a delayed reading to cut background.

T1 sequence (Q9UM73 19-1620): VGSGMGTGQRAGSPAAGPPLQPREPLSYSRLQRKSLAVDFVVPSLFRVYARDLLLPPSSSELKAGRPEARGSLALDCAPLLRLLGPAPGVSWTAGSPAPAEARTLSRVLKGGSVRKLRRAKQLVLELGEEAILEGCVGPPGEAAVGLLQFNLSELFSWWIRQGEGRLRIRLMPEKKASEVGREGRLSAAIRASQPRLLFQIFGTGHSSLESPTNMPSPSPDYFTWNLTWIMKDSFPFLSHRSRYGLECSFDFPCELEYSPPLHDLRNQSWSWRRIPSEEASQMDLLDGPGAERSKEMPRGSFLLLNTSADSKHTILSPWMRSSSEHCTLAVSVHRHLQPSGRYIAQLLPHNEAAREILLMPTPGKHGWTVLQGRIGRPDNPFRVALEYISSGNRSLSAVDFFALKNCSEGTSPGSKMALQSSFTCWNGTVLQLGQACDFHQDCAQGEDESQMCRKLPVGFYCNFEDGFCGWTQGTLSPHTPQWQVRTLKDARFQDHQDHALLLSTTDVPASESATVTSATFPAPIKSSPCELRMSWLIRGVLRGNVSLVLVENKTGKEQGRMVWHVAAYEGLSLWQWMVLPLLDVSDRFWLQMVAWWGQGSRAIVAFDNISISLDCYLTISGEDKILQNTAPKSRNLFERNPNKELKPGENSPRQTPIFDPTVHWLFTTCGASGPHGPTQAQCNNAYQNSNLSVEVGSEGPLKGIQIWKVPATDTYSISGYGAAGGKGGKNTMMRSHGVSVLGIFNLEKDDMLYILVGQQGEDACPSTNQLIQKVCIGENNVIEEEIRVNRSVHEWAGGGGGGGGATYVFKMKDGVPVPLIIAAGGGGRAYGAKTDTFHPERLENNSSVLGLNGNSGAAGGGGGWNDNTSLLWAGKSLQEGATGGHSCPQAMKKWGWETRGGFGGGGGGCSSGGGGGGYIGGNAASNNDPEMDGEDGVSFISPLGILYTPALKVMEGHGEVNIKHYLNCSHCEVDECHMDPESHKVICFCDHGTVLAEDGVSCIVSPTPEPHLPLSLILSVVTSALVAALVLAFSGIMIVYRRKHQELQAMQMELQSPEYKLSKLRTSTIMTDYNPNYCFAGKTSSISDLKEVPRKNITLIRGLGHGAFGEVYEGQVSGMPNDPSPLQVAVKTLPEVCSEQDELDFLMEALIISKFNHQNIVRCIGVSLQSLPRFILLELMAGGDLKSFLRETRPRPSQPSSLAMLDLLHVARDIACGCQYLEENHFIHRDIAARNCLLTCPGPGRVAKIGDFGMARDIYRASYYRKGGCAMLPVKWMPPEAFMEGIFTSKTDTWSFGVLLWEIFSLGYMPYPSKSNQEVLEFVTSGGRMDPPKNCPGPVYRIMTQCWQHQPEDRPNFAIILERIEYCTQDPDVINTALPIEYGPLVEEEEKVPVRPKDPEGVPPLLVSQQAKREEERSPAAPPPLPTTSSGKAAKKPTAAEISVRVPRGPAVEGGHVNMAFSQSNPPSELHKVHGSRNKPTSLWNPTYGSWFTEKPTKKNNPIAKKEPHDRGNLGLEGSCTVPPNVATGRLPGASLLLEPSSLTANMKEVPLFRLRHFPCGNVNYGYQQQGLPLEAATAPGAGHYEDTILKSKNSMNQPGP

For `COc1cc(N2CCNCC2)ccc1Nc1nc(Nc2ccc(Cl)cc2Cl)cc2cnnc(O)c12` [Example 34, 7-[(2,4-dichlorophenyl)amino]-5-{[2-methoxy-4-(piperazin-1-yl)phenyl]amino}pyrido[3,4-d]pyridazin-4-ol], the Ki stood at 4 nM.

Regarding `COc1cc(N2CCNCC2)ccc1Nc1nc(Nc2c(Cl)cc(F)cc2Cl)cc2cnnc(O)c12` [Example 35, 7-[(2,6-dichloro-4-fluorophenyl)amino]-5-{[2-methoxy-4-(piperazin-1-yl)phenyl]amino}pyrido[3,4-d]pyridazin-4-ol], the Ki stood at 1 nM.

As for `COCCNc1cc2cnnc(O)c2c(Nc2ccc(N3CCNCC3)cc2OC)n1` [Example 36, 7-[(2-methoxyethyl)amino]-5-{[2-methoxy-4-(piperazin-1-yl)phenyl]amino}pyrido[3,4-d]pyridazin-4-ol], the Ki is 26 nM.

With `COc1cc(N2CCNCC2)ccc1Nc1nc(Nc2cccc(F)c2F)cc2cn[nH]c(=O)c12` [Example 37, 7-[(2,3-difluorophenyl)amino]-5-{[2-methoxy-4-(piperazin-1-yl)phenyl]amino}pyrido[3,4-d]pyridazin-4(3H)-one], the Ki is 3 nM.

Turning to `COc1cc(N2CCNCC2)ccc1Nc1nc(NCc2ccco2)cc2cnnc(O)c12` [Example 38, 7-[(furan-2-ylmethyl)amino]-5-{[2-methoxy-4-(piperazin-1-yl)phenyl]amino}pyrido[3,4-d]pyridazin-4-ol], the Ki came to 16 nM.

As for `COc1cc(N2CCNCC2)ccc1Nc1nc(N2CCCCC2)cc2cn[nH]c(=O)c12` [Example 39, 5-{[2-methoxy-4-(piperazin-1-yl)phenyl]amino}-7-(piperidin-1-yl)pyrido[3,4-d]pyridazin-4(3H)-one], the Ki is 7 nM.

In the case of `COc1cc(N2CCNCC2)ccc1Nc1nc(NCc2ccccc2)cc2cn[nH]c(=O)c12` [Example 40, 7-(benzylamino)-5-{[2-methoxy-4-(piperazin-1-yl)phenyl]amino}pyrido[3,4-d]pyridazin-4(3H)-one], the Ki amounted to 36 nM.

Consider `COc1cc(N2CCNCC2)ccc1Nc1nc(-c2ccccc2)cc2cn[nH]c(=O)c12` [Example 41, 5-{[2-methoxy-4-(piperazin-1-yl)phenyl]amino}-7-phenylpyrido[3,4-d]pyridazin-4(3H)-one], for which the Ki came out at 28 nM.

Take `O=c1[nH]ncc2cc(Cc3c(Cl)cccc3Cl)nc(Nc3c(F)cc(N4CCNCC4)cc3F)c12` [Example 42, 7-(2,6-dichlorobenzyl)-5-{[2,6-difluoro-4-(piperazin-1-yl)phenyl]amino}pyrido[3,4-d]pyridazin-4(3H)-one]: the Ki is 25 nM.

Consider `COc1cc(N2CCNCC2)ccc1Nc1nc(Nc2ccccn2)cc2cn[nH]c(=O)c12` [Example 43, 5-{[2-methoxy-4-(piperazin-1-yl)phenyl]amino}-7-(pyridin-2-ylamino)pyrido[3,4-d]pyridazin-4(3H)-one], for which the Ki stood at 15 nM.

Regarding `COc1cc(N2CCNCC2)ccc1Nc1nc(Nc2cccnc2)cc2cn[nH]c(=O)c12` [Example 44, 5-{[2-methoxy-4-(piperazin-1-yl)phenyl]amino}-7-(pyridin-3-ylamino)pyrido[3,4-d]pyridazin-4(3H)-one], the Ki was 13 nM.

Consider `COc1cc(N2CCNCC2)ccc1Nc1nc(NCCN(C)C)cc2cn[nH]c(=O)c12` [Example 45, 7-{[2-(dimethylamino)ethyl]amino}-5-{[2-methoxy-4-(piperazin-1-yl)phenyl]amino}pyrido[3,4-d]pyridazin-4(3H)-one], for which the Ki amounted to 51 nM.

In the case of `COc1cc(N2CCNCC2)ccc1Nc1nc(NC2CCCCC2)cc2cn[nH]c(=O)c12` [Example 46, 7-(cyclohexylamino)-5-{[2-methoxy-4-(piperazin-1-yl)phenyl]amino}pyrido[3,4-d]pyridazin-4(3H)-one], the Ki is 3 nM.

As for `COc1cc(N2CCNCC2)ccc1Nc1nc(NCCc2ccccn2)cc2cnnc(O)c12` [Example 47, 5-{[2-methoxy-4-(piperazin-1-yl)phenyl]amino}-7-{[2-(pyridin-2-yl)ethyl]amino}pyrido[3,4-d]pyridazin-4-ol], the Ki stood at 53 nM.

For the compound `COc1cc(N2CCNCC2)ccc1Nc1nc(Nc2ccccc2F)cc2cn[nH]c(=O)c12` [Example 48, 7-[(2-fluorophenyl)amino]-5-{[2-methoxy-4-(piperazin-1-yl)phenyl]amino}pyrido[3,4-d]pyridazin-4(3H)-one], the Ki was found to be 4 nM.

Turning to `COc1cc(N2CCNCC2)ccc1Nc1nc(Nc2c(C)cccc2C)cc2cn[nH]c(=O)c12` [Example 49, 7-[(2,6-dimethylphenyl)amino]-5-{[2-methoxy-4-(piperazin-1-yl)phenyl]amino}pyrido[3,4-d]pyridazin-4(3H)-one], the Ki worked out at 1 nM.

As for `COc1cc(N2CCNCC2)ccc1Nc1nc(Nc2ncccc2Cl)cc2cn[nH]c(=O)c12` [Example 50, 7-[(3-chloropyridin-2-yl)amino]-5-{[2-methoxy-4-(piperazin-1-yl)phenyl]amino}pyrido[3,4-d]pyridazin-4(3H)-one], the Ki was 9 nM.

For the compound `COc1cc(N2CCNCC2)ccc1Nc1nc(Nc2cccc(Cl)c2Cl)cc2cn[nH]c(=O)c12` [Example 51, 7-[(2,3-dichlorophenyl)amino]-5-{[2-methoxy-4-(piperazin-1-yl)phenyl]amino}pyrido[3,4-d]pyridazin-4(3H)-one], the Ki came to 2 nM.

As for `COc1cc(N2CCNCC2)ccc1Nc1nc(Nc2c(F)cc(F)cc2F)cc2cn[nH]c(=O)c12` [Example 52, 5-{[2-methoxy-4-(piperazin-1-yl)phenyl]amino}-7-[(2,4,6-trifluorophenyl)amino]pyrido[3,4-d]pyridazin-4(3H)-one], the Ki came out at 2 nM.

Take `COc1cc(N2CCNCC2)ccc1Nc1nc(Nc2ccc(F)c(F)c2F)cc2cn[nH]c(=O)c12` [Example 53, 5-{[2-methoxy-4-(piperazin-1-yl)phenyl]amino}-7-[(2,3,4-trifluorophenyl)amino]pyrido[3,4-d]pyridazin-4(3H)-one]: the Ki was determined as 4 nM.

Take `COc1cc(N2CCNCC2)ccc1Nc1nc(Nc2cccc(Cl)c2F)cc2cnnc(O)c12` [Example 54, 7-[(3-chloro-2-fluorophenyl)amino]-5-{[2-methoxy-4-(piperazin-1-yl)phenyl]amino}pyrido[3,4-d]pyridazin-4-ol]: the Ki amounted to 4 nM.

`COc1cc(N2CCNCC2)ccc1Nc1nc(NC2CCOCC2)cc2cnnc(O)c12` [Example 55, 5-{[2-methoxy-4-(piperazin-1-yl)phenyl]amino}-7-(tetrahydro-2H-pyran-4-ylamino)pyrido[3,4-d]pyridazin-4-ol]: the Ki was determined as 6 nM.

Take `COc1cc(N2CCNCC2)ccc1Nc1nc(Nc2nccs2)cc2cn[nH]c(=O)c12` [Example 56, 5-{[2-methoxy-4-(piperazin-1-yl)phenyl]amino}-7-(1,3-thiazol-2-ylamino)pyrido[3,4-d]pyridazin-4(3H)-one]: the Ki came out at 5 nM.

In the case of `O=c1[nH]ncc2cc(Cc3c(Cl)cccc3Cl)nc(Nc3ccc(N4CCNCC4)cc3Cl)c12` [Example 57, 5-{[2-chloro-4-(piperazin-1-yl)phenyl]amino}-7-(2,6-dichlorobenzyl)pyrido[3,4-d]pyridazin-4(3H)-one], the Ki came out at 2 nM.

For the compound `COc1cc(N2CCNCC2)ccc1Nc1nc(NC2CCN(C)CC2)cc2cn[nH]c(=O)c12` [Example 58, 5-{[2-methoxy-4-(piperazin-1-yl)phenyl]amino}-7-[(1-methylpiperidin-4-yl)amino]pyrido[3,4-d]pyridazin-4(3H)-one], the Ki is 4 nM.

For `COc1c(Nc2nc(Cc3c(Cl)cccc3Cl)cc3cnnc(O)c23)ccc(N2CCNCC2)c1F` [Example 59, 7-(2,6-dichlorobenzyl)-5-{[3-fluoro-2-methoxy-4-(piperazin-1-yl)phenyl]amino}pyrido[3,4-d]pyridazin-4-ol], the Ki was 4 nM.

For the compound `COc1cc(N2CCNCC2)ccc1Nc1nc(Nc2ccncc2Cl)cc2cn[nH]c(=O)c12` [Example 60, 7-[(3-chloropyridin-4-yl)amino]-5-{[2-methoxy-4-(piperazin-1-yl)phenyl]amino}pyrido[3,4-d]pyridazin-4(3H)-one], the Ki came out at 3 nM.

Regarding `O=c1[nH]ncc2cc(Cc3c(Cl)cccc3Cl)nc(Nc3ccc(N4CCNCC4)cc3Br)c12` [Example 61, 5-{[2-bromo-4-(piperazin-1-yl)phenyl]amino}-7-(2,6-dichlorobenzyl)pyrido[3,4-d]pyridazin-4(3H)-one], the Ki was 2 nM.

In the case of `COc1cc(N2CCNCC2)ccc1Nc1nc(Oc2ccccc2Cl)cc2cn[nH]c(=O)c12` [Example 62, 7-(2-chlorophenoxy)-5-{[2-methoxy-4-(piperazin-1-yl)phenyl]amino}pyrido[3,4-d]pyridazin-4(3H)-one], the Ki was 2 nM.

Turning to `COc1cc(N2CCNCC2)ccc1Nc1nc(Oc2c(Cl)cccc2Cl)cc2cn[nH]c(=O)c12` [Example 63, 7-(2,6-dichlorophenoxy)-5-{[2-methoxy-4-(piperazin-1-yl)phenyl]amino}pyrido[3,4-d]pyridazin-4(3H)-one], the Ki turned out to be 1 nM.

For the compound `Oc1nncc2cc(Cc3c(Cl)cccc3Cl)nc(Nc3ccc(N4CCNCC4)cc3OC(F)(F)F)c12` [Example 64, 7-(2,6-dichlorobenzyl)-5-{[4-(piperazin-1-yl)-2-(trifluoromethoxy)phenyl]amino}pyrido[3,4-d]pyridazin-4-ol], the Ki was found to be 21 nM.

As to `COc1cc(N2CCNCC2)ccc1Nc1nc(Nc2c(F)ccc(Cl)c2Cl)cc2cn[nH]c(=O)c12` [Example 65, 7-[(2,3-dichloro-6-fluorophenyl)amino]-5-{[2-methoxy-4-(piperazin-1-yl)phenyl]amino}pyrido[3,4-d]pyridazin-4(3H)-one], the Ki was determined as 1 nM.

Consider `COc1cc(N2CCN3CCCC3C2)ccc1Nc1nc(Cc2c(Cl)cccc2Cl)cc2cn[nH]c(=O)c12` (stereo not drawn) [Example 66, 7-(2,6-dichlorobenzyl)-5-{[4-(hexahydropyrrolo[1,2-a]pyrazin-2(1H)-yl)-2-methoxyphenyl]amino}pyrido[3,4-d]pyridazin-4(3H)-one], for which the Ki was 10 nM.
